The Deep4Chem optical property database
Blank lines part the entries; values can stand above or below the molecule they belong to.

Experiment: solvent given as SMILES

SMILES: CC(C)(C)c1ccc2c(c1)c1cc(C(C)(C)C)ccc1n2-c1ccc(C(=O)c2ccncc2)cc1
absorption maximum (in C1CCOC1): 367.32 nm | absorption maximum (in CCCCCC): 372.17 nm | absorption maximum (in Cc1ccccc1): 373.66 nm | absorption maximum (in ClCCl): 377.92 nm

SMILES: CCOC(=O)C1=CN(c2ccccc2)C=C(C(=O)OCC)C1
absorption maximum (in C1CCOC1): 376 nm | absorption maximum (in CO): 380 nm

SMILES: N#Cc1ccc(-c2cn3cc(C#N)c[n+]3[n-]2)cc1
absorption maximum (in ClCCl): 360 nm

SMILES: CN(C)c1ccc(C2=Nc3sc4cc(C(F)(F)F)ccc4[n+]3[B-](F)(F)O2)cc1
absorption maximum (in C1CCOC1): 430 nm | absorption maximum (in CC#N): 427 nm | absorption maximum (in CC(C)=O): 431 nm | absorption maximum (in Cc1ccccc1): 428 nm | absorption maximum (in ClCCl): 431 nm

SMILES: CC(=O)Nc1ccc(O)cc1
absorption maximum (in C1CCOC1): 293 nm | absorption maximum (in CC#N): 290 nm | absorption maximum (in CCCCO): 290 nm | absorption maximum (in CO): 290 nm | absorption maximum (in CS(C)=O): 293 nm

SMILES: c1ccc(-c2cc(-c3ccc(N4c5ccccc5C(c5ccccc5)(c5ccccc5)c5ccccc54)cc3)nc(-c3ccccc3)n2)cc1
absorption maximum (in Cc1ccccc1): 368.88 nm

SMILES: CCOC(=O)C(C(=O)OCC)C1=[N+]2C(=C(c3ccc(C)cc3)c3ccc(C(C(=O)OCC)C(=O)OCC)n3[B-]2(F)F)C=C1
absorption maximum (in C1CCCCC1): 515 nm | absorption maximum (in C1CCOC1): 512 nm | absorption maximum (in CCOC(C)=O): 510 nm | absorption maximum (in CO): 509 nm | absorption maximum (in Cc1ccccc1): 514 nm | absorption maximum (in ClC(Cl)Cl): 513 nm

SMILES: Cc1cc(C2=Cc3cccc[n+]3[B-](F)(F)O2)ccc1N(C)C
absorption maximum (in ClC(Cl)Cl): 400 nm

SMILES: CCCCCCC(CCCCCC)N1C(=O)c2cccc3c(-c4cc(OC)c(OC)c(OC)c4)ccc(c23)C1=O
absorption maximum (in CCCCCC): 354.8 nm | absorption maximum (in CCCCCCCCCCCCCC): 357 nm | absorption maximum (in CCCCCCCCCCCO): 362.6 nm | absorption maximum (in CCCCO): 361.4 nm | absorption maximum (in CN(C)C=O): 365.6 nm | absorption maximum (in Cc1ccccc1): 360.8 nm | absorption maximum (in ClC(Cl)Cl): 362.2 nm

SMILES: COc1ccc2cc(/C=C/c3nc(/C=C/c4ccc(N(c5ccccc5)c5ccccc5)cc4)cc(/C=C/c4ccc(N(c5ccccc5)c5ccccc5)cc4)n3)ccc2c1
absorption maximum (in ClCCl): 424 nm

SMILES: Cc1cc(C(F)(F)F)nc2c1ccc1nc(-c3ccc(Cl)cc3)cn12
absorption maximum (in CC#N): 362.6 nm | absorption maximum (in CCCCCC): 376.5 nm | absorption maximum (in CCCCOC(C)=O): 368.6 nm | absorption maximum (in CCOC(C)=O): 368.2 nm | absorption maximum (in CO): 359.6 nm | absorption maximum (in Cc1ccccc1): 375.2 nm | absorption maximum (in ClC(Cl)Cl): 369.2 nm | absorption maximum (in ClCCl): 366.6 nm | absorption maximum (in c1ccccc1): 375 nm

SMILES: CCN(CC)c1ccc(/C=C2\CC/C(=C\c3ccc(N(c4ccc(/C=C5\CC/C(=C\c6ccc(N(CC)CC)cc6)C5=C(C#N)C#N)cc4)c4ccc(/C=C5\CC/C(=C\c6ccc(N(CC)CC)cc6)C5=C(C#N)C#N)cc4)cc3)C2=C(C#N)C#N)cc1
absorption maximum (in CN(C)C=O): 590 nm

SMILES: c1ccc(N(c2ccccc2)c2c3ccccc3c(N(c3ccccc3)c3ccccc3)c3ccccc23)cc1
absorption maximum (in Cc1ccccc1): 461 nm

SMILES: N#C/C(=C\c1ccc(Cl)cc1)c1nc(-c2ccccc2)cs1
absorption maximum (in CC#N): 364 nm

SMILES: c1ccc(-c2nc(-c3ccc(N4c5ccccc5Sc5ccccc54)cc3)nn2-c2ccc(N3c4ccccc4Sc4ccccc43)cc2)nc1
absorption maximum (in ClCCl): 377 nm

SMILES: O=c1oc2ccc(Br)cc2cc1-c1cc2cc(Br)ccc2o1
absorption maximum (in CC#N): 370 nm | absorption maximum (in CCOC(C)=O): 371 nm | absorption maximum (in CS(C)=O): 374 nm | absorption maximum (in Cc1ccccc1): 377 nm | absorption maximum (in O): 331 nm

SMILES: C1=C(c2ccc(-c3cccs3)s2)CCC(c2ccccc2)C1 (centres undefined)
absorption maximum (in C1CCOC1): 342 nm | absorption maximum (in CC#N): 341 nm | absorption maximum (in CCCCCC): 341 nm | absorption maximum (in CCO): 341 nm | absorption maximum (in OCCOCCO): 346 nm | absorption maximum (in c1ccncc1): 347 nm

SMILES: O=C([O-])c1c(Cl)c(Cl)c(Cl)c(Cl)c1-c1c2cc(I)c(=O)c(I)c-2oc2c(I)c([O-])c(I)cc12
absorption maximum (in CC(C)O): 561 nm | absorption maximum (in CCO): 558 nm | absorption maximum (in CO): 556 nm | absorption maximum (in O): 548 nm

SMILES: C(=C\c1ccc(-c2cccc3ccccc23)s1)/c1cccs1
absorption maximum (in ClCCl): 370 nm

SMILES: C(=C(c1ccccc1)c1ccccc1)c1ccc(-c2ccc(C=C(c3ccccc3)c3ccccc3)cc2)cc1
absorption maximum (in C1CCOC1): 351 nm

SMILES: COC(=O)C1CCN(c2ccc3c(N4CCCCC4)c4ccc(=[N+]5CCC(C(=O)OC)CC5)cc-4oc3c2)CC1 (centres undefined)
absorption maximum (in ClCCl): 482 nm

SMILES: COc1ccc2oc(=N)c(C#N)cc2c1
absorption maximum (in ClCCl): 388 nm

SMILES: CC1CC=C(c2ccc(-c3cccs3)s2)CC1 (centres undefined)
absorption maximum (in C1CCOC1): 341 nm | absorption maximum (in CC#N): 341 nm | absorption maximum (in CCCCCC): 341 nm | absorption maximum (in CCO): 336 nm | absorption maximum (in OCCOCCO): 341 nm | absorption maximum (in c1ccncc1): 343 nm

SMILES: CCCCCN(c1ccccc1)c1ccc2c(c1)C(CC)(CC)c1cc(/C=C/c3ccc(/C=C(\C#N)C(=O)O)s3)ccc1-2
absorption maximum (in C1CCOC1): 456 nm | absorption maximum (in C1COCCO1): 464 nm | absorption maximum (in CC#N): 430 nm | absorption maximum (in CC(C)=O): 464 nm | absorption maximum (in CCOC(C)=O): 460 nm | absorption maximum (in CN(C)C=O): 418 nm | absorption maximum (in CS(C)=O): 430 nm | absorption maximum (in ClCCl): 470 nm

SMILES: CCOC(=O)c1cc(C(=O)OCC)c2cc(N)ccc2n1
absorption maximum (in CCO): 421 nm

SMILES: Fc1ccccc1N1c2c(sc3ccccc23)Sc2sc3ccccc3c21
absorption maximum (in ClCCl): 353 nm

SMILES: COc1ccc(-c2nc3c(c4c2-c2ccc(C#N)cc2CC4)-c2ccc(C#N)cc2CC3)cc1
absorption maximum (in C1CCOC1): 332 nm | absorption maximum (in CC#N): 329 nm | absorption maximum (in CCCCCC): 336 nm | absorption maximum (in CCOC(C)=O): 324 nm | absorption maximum (in CO): 326 nm | absorption maximum (in CS(C)=O): 331 nm | absorption maximum (in Cc1ccccc1): 334 nm | absorption maximum (in ClCCl): 333 nm

SMILES: BrCCCCCCCCCCCCOc1cc2ccc3cccc4ccc(c1)c2c34
absorption maximum (in Cc1ccccc1): 384 nm

The remaining lines, values ahead:

absorption maximum (in ClCCl): 622 nm
SMILES: CC(C)c1cccc(C(C)C)c1N1C(=O)c2ccc3c(-c4ccc(C(=O)O)cc4)c4c5ccc6c7c(ccc(c(-c8ccc(C(=O)O)cc8)c4c4ccc(c2c34)C1=O)c75)C(=O)N(c1c(C(C)C)cccc1C(C)C)C6=O

absorption maximum (in c1ccccc1): 369 nm
SMILES: Cn1c(=O)c(-c2ccccc2)nc2ccccc21

absorption maximum (in ClCCl): 364 nm
SMILES: Oc1cc(-c2cccs2)ccc1-c1nc2ccccc2s1

absorption maximum (in CC#N): 402 nm | absorption maximum (in ClCCl): 406 nm
SMILES: COC(=O)c1cc(=O)n(C)c2cc(-c3ccccc3N(C)C)sc12

absorption maximum (in CC#N): 394 nm
SMILES: COc1ccc(-c2nc(/C(C#N)=C/c3ccc(Cl)cc3)sc2-c2ccc(OC)cc2)cc1

absorption maximum (in ClCCl): 282 nm
SMILES: Cn1nc(-c2ccc(C#N)cc2)cc1-c1ccccc1

absorption maximum (in C1CCCCC1): 360 nm
SMILES: CCCC1(CCC)c2ccccc2-c2ccc(-c3ccc4c(c3)C(CCC)(CCC)c3cc(-c5ccc6c(c5)C(CCC)(CCC)c5cc(-c7ccc8c(c7)C(CCC)(CCC)c7ccccc7-8)ccc5-6)ccc3-4)cc21

absorption maximum (in ClCCl): 337 nm
SMILES: CCCCn1c2ccc3ccc4ccccc4c3c2c2c3c(ccc4ccccc43)ccc21

absorption maximum (in ClCCl): 418 nm
SMILES: Cn1cc(-c2nc3ccccc3nc2C#Cc2ccc(C#N)cc2)c2ccccc21

absorption maximum (in ClC(Cl)Cl): 740 nm
SMILES: COc1ccc2c(c1)CCC1=C(c3ccccc3)C3=Nc4c(-c5ccccc5)c5c(n4[B-](F)(F)[N+]3=C12)-c1ccc(OC)cc1CC5

absorption maximum (in CO): 755 nm | absorption maximum (in O): 750 nm
SMILES: CC1(C)C2=[N+](CCCCCC(=O)NCCNC(=O)CCCCCN3/C(=C/C=C/C=C/C=C/2)C(C)(C)c2cc(S(=O)(=O)[O-])ccc23)c2ccc(S(=O)(=O)[O-])cc21

absorption maximum (in ClCCl): 375 nm
SMILES: CC1(C)c2ccccc2N(c2ccc(-c3nc(-c4ccccn4)n(-c4ccc(N5c6ccccc6C(C)(C)c6ccccc65)cc4)n3)cc2)c2ccccc21

absorption maximum (in O): 422 nm
SMILES: COc1ccc2c(c1)c(=O)c1ccccc1n2CCCCCC(=O)O

absorption maximum (in ClCCl): 328 nm
SMILES: CCCCC(CC)COc1cc(OCC(CC)CCCC)c2c#cc3ccc4oc5ccc(c#cc6cc(c#cc7ccc8oc9ccc(c#cc1c2)cc9c8c7)c(C(CCCC)OCCC)cc6C(CCCC)OCCC)cc5c4c3 (centres undefined)

absorption maximum (in CO): 765 nm
SMILES: CC1(C)C(/C=C/C2=C(Oc3ccc(CCN=C=S)cc3)C(=C/C=C3/N(CCCS(=O)(=O)[O-])c4ccccc4C3(C)C)/CCC2)=[N+](CCCS(=O)(=O)[O-])c2ccccc21

absorption maximum (in C1CCCCC1): 591 nm
SMILES: CCc1c(C)c2n(c1C)[B-](F)(F)[N+]1=C(C=C3C=Cc4ccccc43)C=CC1=C2C

absorption maximum (in C1CCCCC1): 581.5 nm | absorption maximum (in CCOC(C)=O): 576.5 nm | absorption maximum (in CO): 574.5 nm
SMILES: Cc1ccccc1C1=C2C=c3c(oc4ccc(F)cc34)=[N+]2[B-](F)(F)n2c1cc1c3cc(F)ccc3oc12

absorption maximum (in C1CCOC1): 407 nm
SMILES: COc1cc2c(cc1-c1ccncc1)Cc1c3c(c4c(c1-2)-c1cc(OC)c(-c2ccncc2)cc1C4)C(=O)N(CCC(C)C)C3=O

absorption maximum (in CCO): 382 nm
SMILES: Cc1c(COC(=O)c2ccccc2Br)n2c(OCC(=O)c3ccccc3Br)c(C)c(=O)n2c1=O

absorption maximum (in CCO): 381 nm
SMILES: Cc1c(COC(=O)c2ccccc2)n2c(OCC(=O)c3ccccc3)c(C)c(=O)n2c1=O

absorption maximum (in C1COCCO1): 447 nm | absorption maximum (in CC#N): 441 nm | absorption maximum (in CCCCOCCCC): 453 nm | absorption maximum (in CCOC(C)=O): 451 nm
SMILES: CC(=O)Nc1ccc2c3cccc4cccc(c5cccc1c52)c43

absorption maximum (in C1COCCO1): 394 nm | absorption maximum (in CC#N): 395 nm | absorption maximum (in CCCCOCCCC): 398 nm | absorption maximum (in CCOC(C)=O): 395 nm
SMILES: COc1nc(Nc2ccc3cc4ccccc4cc3c2)nc(OC)n1

absorption maximum (in ClCCl): 339 nm
SMILES: CCCCn1c(-c2ccc(-c3nnc(-c4ccccc4)o3)cc2)nc(-c2ccccc2)c1-c1ccccc1

absorption maximum (in C1CCCCC1): 405 nm
SMILES: N#Cc1cc(-c2ccccc2)c(N2c3ccccc3Oc3ccccc32)c(-c2ccccc2)c1

absorption maximum (in ClCCl): 611 nm
SMILES: CCCCCCOc1cc(/C=C/c2cc(OCCCCCC)c(/C=C/c3cc(OCCCCCC)c(/C=C4\C(=O)c5ccccc5C4=C(C#N)C#N)cc3OCCCCCC)cc2OCCCCCC)c(OCCCCCC)cc1/C=C1\C(=O)c2ccccc2C1=C(C#N)C#N

absorption maximum (in C1CCCCC1): 402 nm | absorption maximum (in CC#N): 404 nm | absorption maximum (in CO): 401 nm | absorption maximum (in ClCCl): 405 nm
SMILES: COc1c2ccccc2c(OC)c2c1c1ccc(C)cc1n2C
